Measurements published in US20070178152A1, “Carboxyalkylcellulose esters for administration of poorly soluble pharmaceutically active agents” (priority 2005, published 2007).
Values joined by “and” are separate entries in the source; they are usually repeats but may differ in a detail not shown here. Equal values may be shown once.

Columns and labels:
Type in all cases: physicochemical
[1] = Determination of % crystallinity by X-ray
Method: Determination of % Crystallinity by X-ray.
All samples were run on a Scintag PAD V diffractometer using Cu K-alpha X-ray.
For each polymer or drug used in this study a neat sample was obtained. A known weight of each species was mixed with a know weight of corundum, Al2O3, diffraction standard. Each mixture was pelletized with a hydraulic press and the XRD pattern of the pellet was measured from 5 to 45 degree scattering angle. A diffraction response factor, R, was calculated for each species according to: R=wc/ws*ls/lc where wc id the weight fraction of corundum, ws is the weight fraction of the species of interest, lc is the net intensity of the major diffraction line of corrundum and is the net intensity of the major diffraction line of the drug or in the case of the polymers, the net intensity of the maximum of the amorphous scattering curve.
Samples were pelletized with a hydraulic press and the XRD pattern of the pellet was measured from 5 to 45 degree scattering angle. The net intensity of the maximum of the amorphous scatter from the polymer, lp, and the net intensity of the major diffraction line of the drug, ld, were determined from the resulting scattering curve. The wt % crystalline drug was calculated from: % crystalline drug=(ld/Rd)/(ld/Rd+lp/Rp)×100 where Rd is the response factor for the drug and Rp is the response factor for the polymer.

[2] = Dissolution of carbamazepine and carbamazepine solid dispersions in SIFsp, pH 6.8; conditions: for % Drug Released / Total Drug Released: SIFsp pH 6.8, gelatin capsule; for Average % Released: carbamazepine
Method: (§1) All dissolution studies were performed on a Varian VK7025 Dissolution Apparatus equipped with a Varian VK8000 Fraction Collector
(§2) HPLC Methods for Evaluating Dissolution Aliquots:
(§3) Determination of Weight % Phenytoin, Carbamazepine, Glyburide, or Griseofulvin.
(§4) Mobile Phase: 55% acetonitrile/45% ammonium acetate buffer (2.6 g NH4OAc/L H2O with pH adjusted to pH˜5.25 with glacial acetic acid)
(§5) Column: Agilent Eclipse XDB-C8, 4.6 mm×150 mm×5 μm
(§6) Detection: UV 254 nm (UV 214 nm can also be used for phenytoin or carbamazepine, UV 291 nm can also be used for griseofulvin); typically five signals were selected from UV 214 nm, 222 nm, 254 nm, 287 nm, 291 nm, and/or 325 nm were collected for each sample.
(§7) Simulated Intestinal Fluid, without pancreatin, pH 6.8 (SIFsp, pH 6.8)—Added monobasic potassium phosphate (KH2PO4, 34 g) to a 4000-mL beaker. Added deionized/polished water (2000 mL) and mixed using a magnetic stir bar until the KH2PO4 is completely dissolved. Added 0.2 N sodium hydroxide (NaOH, 590 mL) and stirred. The pH was adjusted to pH 6.8±0.1 using 0.2 N NaOH. The sample was diluted with deionized/polished water to a final volume of 5000 mL.
(§8) The SIFsp media was heated to ˜45° C. in four 2000-mL Kimax bottles in an oven. The sample was degassed according to USP protocol by filtering through a 0.45 μm membrane filter (Pall, Supor-450, 0.45 μm, 90 mm, part # 60200, Lot # 43214) and stirring under vacuum for 5 minutes.
(§9) Dissolution Conditions #1.
(§10) Dissolution Conditions #2.
These Examples describe the dissolution of carbamazepine and carbamazepine solid dispersions by evaluating the samples described in Examples 91-99. SlFsp, pH 6.8 media preparation was described in the Materials and Methods section.
Samples were transferred into gelatin capsules (Capsugel, size OCS, Lot #624282) using a manual single capsule filler. The weight of each capsule and the amount of sample added are found in Table 17 (Capsule Description).

[3] = Dissolution of griseofulvin and griseofulvin solid dispersions (with or without surfactant) in SIFsp, pH 6.8; conditions: for % Drug Released / Total Drug Released: SIFsp pH 6.8, gelatin capsule, single vessel; for Average % Released: SIFsp, pH 6.8, average of runs
Method: as §1, §2, §3, §4, §5, §6, §7, §8, §9, §10
These Examples describe the dissolution of griseofulvin and griseofulvin solid dispersions by evaluating the samples described in Examples 125-134. SlFsp, pH 6.8 media preparation was described in the Materials and Methods section.
Samples were transferred into gelatin capsules (Capsugel, size 0CS, Lot # 624282) using a manual single capsule filler. The weight of each capsule and the amount of sample added are found in Table 21 and 22 (Capsule Description).
These Examples describe the impact of surfactant additives on the dissolution profiles of griseofulvin/CMCAB solid dispersions. Preparations of the griseofulvin/CMCAB, griseofulvin/CMCAB/Tween 80, and griseofulvin/CMCAB/SDS solid dispersions evaluated in this example are described in Examples 135-138. SIFsp, pH 6.8 media preparation was described in the Materials and Methods section.
Samples were transferred into gelatin capsules (Capsugel, size 00CS, Lot # 637785) using a manual single capsule filler. The weight of each capsule and the amount of sample added are found in Table 23 (Capsule Description).

O=C1NC(=O)C(c2ccccc2)(c2ccccc2)N1 [Example 78, Phenytoin]
wt % Crystal (X-ray) ([1]; phenytoin/polymer solid dispersions and physical blends (Table 6)): 100 wt %

NC(=O)N1c2ccccc2C=Cc2ccccc21 [Example 95, Carbamazepine]
wt % Crystal (X-ray) ([1]; carbamazepine/CMCAB solid dispersions and physical blends (Table 8)): 100 wt % | % Drug Released ([2]; 20 min): 33.9384% and 38.8298% | Total Drug Released ([2]; 20 min): 9.4293 mg and 10.5423 mg | % Drug Released ([2]; 30 min): 44.1249% and 55.2412% | Total Drug Released ([2]; 30 min): 12.2594 mg and 14.9980 mg | % Drug Released ([2]; 60 min): 59.6056% and 68.7527% | Total Drug Released ([2]; 60 min): 16.5605 mg and 18.6664 mg | % Drug Released ([2]; 120 min): 68.4090% and 79.5856% | Total Drug Released ([2]; 120 min): 19.0064 mg and 21.6075 mg | % Drug Released ([2]; 180 min): 67.5738% and 72.0943% | Total Drug Released ([2]; 180 min): 18.7744 mg and 19.5736 mg | % Drug Released ([2]; 240 min): 67.7652% and 72.6520% | Total Drug Released ([2]; 240 min): 18.8275 mg and 19.7250 mg | % Drug Released ([2]; 300 min): 67.6548% and 72.9162% | Total Drug Released ([2]; 300 min): 18.7969 mg and 19.7968 mg | % Drug Released ([2]; 360 min): 72.4305% and 71.9068% | Total Drug Released ([2]; 360 min): 20.1237 mg and 19.5227 mg | % Drug Released ([2]; 450 min): 67.4606% and 70.7122% | Total Drug Released ([2]; 450 min): 18.7429 mg and 19.1984 mg | Average % Released ([2]; SIFsp pH 6.8, 10 min): 6.7739% | Average % Released ([2]; SIFsp pH 6.8, 20 min): 36.3841% | Average % Released ([2]; SIFsp pH 6.8, 30 min): 49.6830% | Average % Released ([2]; SIFsp pH 6.8, 60 min): 64.1792% | Average % Released ([2]; SIFsp pH 6.8, 120 min): 73.9973% | Average % Released ([2]; SIFsp pH 6.8, 180 min): 69.8341% | Average % Released ([2]; SIFsp pH 6.8, 240 min): 70.2086% | Average % Released ([2]; SIFsp pH 6.8, 300 min): 70.2855% | Average % Released ([2]; SIFsp pH 6.8, 360 min): 72.1686% | Average % Released ([2]; SIFsp pH 6.8, 450 min): 69.0864%

COc1ccc(Cl)cc1C(=O)NCCc1ccc(S(=O)(=O)NC(=O)NC2CCCCC2)cc1 [Example 113, Glyburide]
wt % Crystal (X-ray) ([1]; glyburide/CMCAB solid dispersions and physical blends (Table 10)): 100 wt %

COC1=CC(=O)C[C@@H](C)[C@]12Oc1c(Cl)c(OC)cc(OC)c1C2=O [griseofulvin, Griseofulvin]
% Drug Released ([3]; 15 min): 39.8059% and 45.3135% and 36.6133% and 35.8167% | Total Drug Released ([3]; 15 min): 13.1651 mg and 12.7375 mg and 12.9809 mg and 12.9579 mg | % Drug Released ([3]; 30 min): 37.0470% and 36.5664% and 39.6132% and 46.9736% | Total Drug Released ([3]; 30 min): 13.1347 mg and 13.2291 mg and 13.1014 mg and 13.0986 mg | % Drug Released ([3]; 45 min): 36.6587% and 36.6412% and 39.5262% and 47.1475% | Total Drug Released ([3]; 45 min): 12.9970 mg and 13.2561 mg and 13.0726 mg and 13.1471 mg | % Drug Released ([3]; 60 min): 37.2839% and 36.7251% and 40.3033% and 46.5134% | Total Drug Released ([3]; 60 min): 13.2187 mg and 13.2865 mg and 13.3296 mg and 12.9703 mg | % Drug Released ([3]; 90 min): 36.3266% and 35.9752% and 39.8005% and 51.1520% | Total Drug Released ([3]; 90 min): 12.8793 mg and 13.0152 mg and 13.1633 mg and 14.2638 mg | % Drug Released ([3]; 120 min): 38.9498% and 36.7450% and 40.2775% and 47.3403% | Total Drug Released ([3]; 120 min): 13.8093 mg and 13.2937 mg and 13.3211 mg and 13.2009 mg | % Drug Released ([3]; 150 min): 36.6774% and 35.8335% and 39.6316% and 47.7972% | Total Drug Released ([3]; 150 min): 13.0036 mg and 12.9639 mg and 13.1075 mg and 13.3283 mg | % Drug Released ([3]; 180 min): 36.6068% and 35.6474% and 39.0996% and 46.7861% | Total Drug Released ([3]; 180 min): 12.9786 mg and 12.8966 mg and 12.9315 mg and 13.0464 mg | % Drug Released ([3]; 210 min): 37.1385% and 35.7882% and 39.5796% and 46.7393% | Total Drug Released ([3]; 210 min): 13.1671 mg and 12.9476 mg and 13.0903 mg and 13.0333 mg | % Drug Released ([3]; 240 min): 36.7973% and 36.6212% and 39.5780% and 46.2187% | Total Drug Released ([3]; 240 min): 13.0461 mg and 13.2489 mg and 13.0897 mg and 12.8881 mg | griseofulvin release profile ([3]; SIFsp pH 6.8, FIGS. 7-14, in words): rapid release | Average % Released ([3]; 15 min): 39.3874% | Average % Released ([3]; 30 min): 40.0500% | Average % Released ([3]; 45 min): 39.9934% | Average % Released ([3]; 60 min): 40.2064% | Average % Released ([3]; 90 min): 40.8136% | Average % Released ([3]; 120 min): 40.8282% | Average % Released ([3]; 150 min): 39.9849% | Average % Released ([3]; 180 min): 39.5350% | Average % Released ([3]; 210 min): 39.8114% | Average % Released ([3]; 240 min): 39.8038%
